Experimental data from paper PMC11492426, “Design, synthesis, and biological evaluation of novel quinoline-based EGFR/HER-2 dual-target inhibitors as potential anti-tumor agents” (RSC Advances, 2024).

How the values were obtained:
[1] = Cell viability assay (MTT) on MCF-10A normal cells; type: cell-based; details: human, MCF-10A mammary gland epithelial normal cells, MCF-10A cells, four-day incubation
Experimental: The impact of compounds 3a–h and 5a–d on cell viability was evaluated using the human mammary (MCF-10A) gland epithelium normal cell line. The MTT assay was used to evaluate the cell viability of 3a–h and 5a–d after a four-day incubation period on MCF-10A cells.[46] Refer to Appendix A for more details.
The effect of new compounds 3a–h and 5a–d on cell viability was evaluated using the MCF-10A (human mammary gland epithelium) normal cell line.
4.2. Biological evaluation
4.2.1 Cell Viability assay (MTT assay)
MTT assay was performed to investigate the effect of the synthesized compounds on mammary epithelial cells (MCF-10A). The cells were propagated in medium consisting of Ham's F-12 medium/ Dulbecco's modified Eagle's medium (DMEM) (1:1) supplemented with 10% foetal calf serum, 2 mM glutamine, insulin (10 μg/mL), hydrocortisone (500 ng/mL) and epidermal growth factor (20 ng/mL). Trypsin ethylenediamine tetra acetic acid (EDTA) was used to passage the cells after every 2-3 days. 96-well flat-bottomed cell culture plates were used to seed the cells at a density of 10^4 cells mL-1. The medium was aspirated from all the wells of culture plates after 24 h followed by the addition of synthesized compounds (in 200 μL medium to yield a final concentration of 0.1% (v/v) dimethyl sulfoxide) into individual wells of the plates. Four wells were designated to a single compound. The plates were allowed to incubate at 37°C for 96 h. Afterwards, the medium was aspirated and 3-[4,5-dimethylthiazol-2-yl]-2,5-diphenyltetrazolium bromide (MTT) (0.4 mg/mL) in medium was added to each well and subsequently incubated for 3 h. The medium was aspirated and 150 μL dimethyl sulfoxide (DMSO) was added to each well. The plates were vortexed followed by the measurement of absorbance at 540 nm on a microplate reader. The results were presented as inhibition (%) of proliferation in contrast to controls comprising 0.1% DMSO.

[2] = test system: A-549 lung cancer cell line; assay: Antiproliferative assay, A-549; type: cell-based; details: Homo sapiens, A549; A-549 lung cancer cells; read-out: Antiproliferative activity IC50 ± SEM, A-549
[3] = test system: MCF-7 breast cancer cell line; assay: Antiproliferative assay, MCF-7; type: cell-based; details: Homo sapiens, MCF7; MCF-7 breast cancer cells; read-out: Antiproliferative activity IC50 ± SEM, MCF-7
Caspase-3 = Caspase-3 activation assay in MCF-7 cells; type: cell-based, human; details: for Caspase-3 Conc.: treated at IC50 concentration; for Caspase-3 Fold change: versus untreated control

Compound | viability at 96 h, 50 µM [1] | IC50 [2] | IC50 [3] | Caspase-3 Conc. (Caspase-3) | Caspase-3 Fold change (Caspase-3) | melting point
O=c1[nH]c2ccccc2c(O)c1/C=N/c1nc(-c2ccncc2)n[nH]1 [Compound 3e, (E)-4-hydroxy-3-(((3-(pyridin-4-yl)-1H-1,2,4-triazol-5-yl)imino)methyl)quinolin-2(1H)-one] | 86% | 32 ± 3 nM | 31 ± 3 nM | 587 ± 5 pg/mL | 9 | 327 to 329 °C
O=c1[nH]c2ccccc2c(O)c1C=Nc1ccc(NS(=O)(=O)c2ncccn2)cc1 [Compound 5a, N-(4-(((4-hydroxy-2-oxo-1,2-dihydroquinolin-3-yl)methylene)amino)phenyl) pyrimidine-2-sulfonamide] | 87% | 25 ± 2 nM | 23 ± 2 nM | 710 ± 6 pg/mL | 11 | –
